Here are results for 15 compounds from PMC9161374 (Science Translational Medicine, 2022).

Structures are written as SMILES. Values joined by “and” are separate entries in the source; they are usually repeats but may differ in a detail not shown here. Identical values can stand only once.

Data set [1] has as its system SARS-CoV-2 replicon system (pBAC-SARS-CoV-2-Replicon-Luc). As to the kind of experiment: microbe, parasite or virus in culture. The class given is cell-based. The settings on record: for EC50 / EC90: Severe acute respiratory syndrome coronavirus 2, HEK-293T, 60 h; for EC50: read-out: EC50 (Confidence 95%), replicon; for EC90: read-out: EC90 (Confidence 95%), replicon.

A short description of data set [2]: Permeability and efflux ratio in Caco-2 cells. In kind it is in vitro ADME. To be noted: human; for Papp A→B: AB; for Papp B→A: BA. The source says:
ATV019, and ATV020 in Caco-2 cells.
Compound Caco-2 AB/BA (Papp (10-6 cm/s)) a Efflux ratio
On the technique in general: Caco-2 cells form a polarised layer with tight junctions and transporters.

Data set [3] concerns Vero E6 cells. Kind of data set: CCK-8 cell viability assay. The class given is cell-based, African green monkey. To be noted: individual replicate values, Fig.S4. On the procedure:
To investigate the effect of drugs on cell viability, Vero E6 cells were seeded in 96-well plates at a density of 20,000 cells per well and were treated with drugs at indicated concentrations (0, 0.01, 0.1, 1, 5, 10, 50, 75, 100, 200 μM) for 48 hours. Cell viability was tested by using Cell Counting Kit-8 (CCK-8, Bimake, B34302). The figures were plotted from cell viability percentage versus the drug concentrations using GraphPad Prism 6 software.
Fig. S4. Cytotoxicity assay of compounds in Vero E6 cells.
Vero E6 cells were plated in 96-well plates and treated with increasing concentrations
of each indicated compound, ranging from 0 to 200 μM, for 48 hours. Cell viability was
tested using Cell Counting Kit-8 (CCK-8). Data are presented as mean ± SD.
(Formazan colour is commonly taken as a measure of viable cells.)

A word on the EC50: it is the concentration at which the effect is half-maximal. As a reminder, the EC90 is the concentration at which the effect reaches the 90% level. Consider `N#C[C@@]1(c2ccc3c(N)ncnn23)O[C@H](COC(=O)C2CC2)[C@@H](O)[C@H]1O` [ATV012], for which, in data set [1], the concentration for a half-maximal effect (EC50) is 2170 nM and the EC90 turned out to be 3510 nM.
Take `CC(C)C(=O)Nc1ncnn2c([C@]3(C#N)O[C@H](COC(=O)C(C)C)[C@@H](OC(=O)C(C)C)[C@H]3OC(=O)C(C)C)ccc12` [ATV001]: in data set [1], the “activity in the replicon system in comparison with parent GS-441524” value (“activity in the replicon system” for short) is given as “decreased antiviral activities”.
For the compound `N#C[C@@]1(c2ccc3c(N)ncnn23)O[C@H](COC(=O)CC(F)(F)F)[C@@H](O)[C@H]1O` [ATV016], in data set [1], the concentration for a half-maximal effect (EC50) was 830 nM and the EC90 was 1230 nM.
`CC(C)C(=O)OC[C@H]1O[C@@](C#N)(c2ccc3c(N)ncnn23)[C@H](OC(=O)C(C)C)[C@@H]1OC(=O)C(C)C` [ATV004]: in data set [1], the “activity in the replicon system” value is given as “improved the inhibitory activities”, the half-maximal effective concentration (EC50) worked out at 675 nM and the EC90 was 2070 nM.
For orientation: efflux ratio means a quotient of directional permeabilities that is used to spot active efflux. For orientation: Papp A→B means the apparent permeability from the apical to the basolateral side of a cell layer. What is called Papp B→A is the apparent permeability from the basolateral to the apical side of a cell layer. In the case of `CC(C)[C@H](N)C(=O)OC[C@H]1O[C@@](C#N)(c2ccc3c(N)ncnn23)[C@H](O)[C@@H]1O` [ATV020], in data set [1], the EC50 came to 2350 nM and the EC90 amounted to 13400 nM. Moreover, in data set [2], the efflux ratio amounted to 1.28, the Papp A→B was 0.17 ×10⁻⁶ cm/s and the Papp B→A is 0.22 ×10⁻⁶ cm/s.
For the compound `CCC(C)[C@@H](N)C(=O)OC[C@H]1O[C@@](C#N)(c2ccc3c(N)ncnn23)[C@H](O)[C@@H]1O` (stereo partly shown) [ATV024], in data set [1], the 50% effective concentration (EC50) was 864 nM and the 90% effect concentration (EC90) amounted to 1470 nM.
`N#C[C@@]1(c2ccc3c(N)ncnn23)O[C@H](COC(=O)C2CCCC2)[C@@H](O)[C@H]1O` [ATV015]: in data set [1], the concentration giving a half-maximal response (EC50) turned out to be 713 nM and the EC90 came to 962 nM.
With `CCC(CC)COC(=O)[C@H](C)N[P@](=O)(OC[C@H]1O[C@@](C#N)(c2ccc3c(N)ncnn23)[C@H](O)[C@@H]1O)Oc1ccccc1` [RDV], the “cell viability (% of control)” value is 100.353 % of control and 102.354 % of control and 103.353 % of control in data set [3] (0.1 μM compound, 0.1 µM); 99.5206 % of control and 102.566 % of control and 112.154 % of control in data set [3] (1 μM compound, 1 µM); 97.4544 % of control and 95.2342 % of control and 99.3423 % of control in data set [3] (2 μM compound, 2 µM); 91.6526 % of control and 95.3187 % of control and 100 % of control in data set [3] (5 μM compound, 5 µM); 93.1472 % of control and 90.0169 % of control and 88.1839 % of control in data set [3] (10 μM compound, 10 µM); 90.3424 % of control and 95.3423 % of control and 99.3423 % of control in data set [3] (20 μM compound, 20 µM). Further, in data set [3] (50 μM compound, 50 µM), the “cell viability (% of control)” value is 80.3835 % of control and 84.2922 % of control and 85.9278 % of control.
In the case of `CC(=O)Nc1ncnn2c([C@]3(C#N)O[C@H](COC(C)=O)[C@@H](OC(C)=O)[C@H]3OC(C)=O)ccc12` [ATV002], in data set [1], the “activity in the replicon system” value is reported as “decreased antiviral activities”.
Regarding `CCCC(=O)OC[C@H]1O[C@@](C#N)(c2ccc3c(N)ncnn23)[C@H](O)[C@@H]1O` [ATV0009], the “cell viability (% of control)” value is 109.752 % of control and 112.521 % of control and 116.766 % of control in data set [3] (0.01 μM compound, 0.01 µM); 123.319 % of control and 106.337 % of control and 117.182 % of control in data set [3] (0.1 μM compound, 0.1 µM); 116.074 % of control and 120.089 % of control and 107.814 % of control in data set [3] (1 μM compound, 1 µM); 114.09 % of control and 114.182 % of control and 114.044 % of control in data set [3] (2 μM compound, 2 µM); 120.412 % of control and 124.38 % of control and 128.395 % of control in data set [3] (5 μM compound, 5 µM); 124.625 % of control and 120.839 % of control and 120.84 % of control in data set [3] (10 μM compound, 10 µM). Further, in data set [3] (50 μM compound, 50 µM), the “cell viability (% of control)” value is 90.5983 % of control and 85.7996 % of control and 95.8178 % of control.
As for `CCC(=O)OC[C@H]1O[C@@](C#N)(c2ccc3c(N)ncnn23)[C@H](O)[C@@H]1O` [ATV008], in data set [1], the EC50 worked out at 815 nM and the 90% effect concentration (EC90) was 3140 nM.
The matching figures for `CCC(C)[C@H](N)C(=O)OC[C@H]1O[C@@](C#N)(c2ccc3c(N)ncnn23)[C@H](O)[C@@H]1O` (stereo partly shown) [ATV023]: 950 nM and 2010 nM.
Consider `CC(=O)OC[C@H]1O[C@@](C#N)(c2ccc3c(N)ncnn23)[C@H](OC(C)=O)[C@@H]1OC(C)=O` [ATV003], for which, in data set [1], the “activity in the replicon system” value was “did not substantially change the activity”, the half-maximal effective concentration (EC50) came to 829 nM and the EC90 amounted to 2320 nM.
For `CC(C)[C@@H](N)C(=O)OC[C@H]1O[C@@](C#N)(c2ccc3c(N)ncnn23)[C@H](O)[C@@H]1O` [ATV019], in data set [1], the concentration for a half-maximal effect (EC50) was 974 nM and the 90% effect concentration (EC90) stood at 3810 nM. Further, in data set [2], the efflux ratio came out at 2.47, the apparent permeability from apical to basolateral (Papp A→B) stood at 0.28 ×10⁻⁶ cm/s and the apparent permeability from basolateral to apical (Papp B→A) turned out to be 0.68 ×10⁻⁶ cm/s.
Take `CC(=O)OC[C@H]1O[C@@](C#N)(c2ccc3c(N)ncnn23)[C@H](O)[C@@H]1O` [ATV007]: in data set [1], the concentration giving a half-maximal response (EC50) is 1960 nM and the EC90 turned out to be 3730 nM.
